Data from patent US9802929B2, “Benzo five-membered nitrogen heterocyclic piperidine or piperazine derivatives and preparation methods and pharmaceutical compositions thereof” (Shenyang Haiwang Biotechnology Co., Ltd., priority 2012, dated 2017).
pEC50: −log10 of the molar value.

Assays:
[1] = tested on: In-Vitro Vascular Smooth Muscle of Rabbits; assay: Relaxant effect on in vitro rabbit vascular smooth muscle contraction induced by hyperkalemia solution; conditions: for pEC50: Oryctolagus cuniculus, relaxation of rabbit aortic rings contracted by hyperkalemia solution (K+ 60 mmol/L); for relaxant effect against hyperkalemia solution contraction (in words): rabbit vascular smooth muscle
[2] = tested on: In Vitro Vascular Smooth Muscle of Rabbits; assay: Relaxant effect on in vitro rabbit vascular smooth muscle contraction induced by adrenaline (AD); conditions: for pEC50: Oryctolagus cuniculus, relaxation of rabbit aortic rings contracted by AD (10^−5 mol/L); for relaxant effect against AD contraction (in words): rabbit vascular smooth muscle, AD 10^−5 mol/L
Description: Krebs-Henseleit (K—H) physiological solution: NaCl 6.92 (concentration units), KCl 0.35, MgSO4 0.29, KH2PO4 0.16, CaCl2 0.28, NaHCO3 2.1, glucose 2.0 (g/L), pH 7.2.
Preparation of compound II-1 to II-87 solutions: Weigh a certain quality compound samples and dilute to concentrations (10^−10˜10^−3 mol/L) with distilled water, standby.
Cut the chest open quickly after stunning, strip out the descending aorta, then after removing the surrounding connective tissue and adipose tissue (if performed serotonin receptor antagonist experiments, endothelial cells should be removed using a smooth stainless steel bars), cut the vessels into 3-5 mm vascular ring, then pass the steel hook through the blood vessel ring, with one end is fixed to the vent hook and the other end connected to the tension transducer, then place the specimens into bath tube containing 20 mL of nutrient solution, and record tension change by tension transducer. Maintain tube temperature at 37±0.5° C., and pass bubbles (95% O2+5% CO2) into the solution as a speed of 1-2 bubbles/minute. Place an initial load of 1.5 g on the rings, and change nutrient every 20 minutes, then balance for 2 hours and start test after baseline readings are stabilized.
After tension readings are stabilized, record a certain length of tension curve, and add spasmogens agent AD (10^−5 mol/L) to induce contraction; if a maximum contract is achieved, wash the specimens thoroughly, and change K—H solution every 20 minutes, and then balance for 60 minutes; after baseline readings are stabilized, induce contract with spasmogens agent again. When the maximum contract in the later induction is consistent with the former induction, add compound II-1 to II-34 solutions (1×10^−10 to 1×10^−3 mol/L), II-35 to II-87 solutions (1×10^−8-1×10^−3 mol/L), and record the curves. Draw a dose-response curve using maximum relaxation response as 100%, relaxation percentage as ordinate and negative logarithms of the each concentration as abscissa.

Structure (SMILES)	pEC50 [1]	other results
c1ccc2c(c1)ncn2CCCCN1CCN(c2n[nH]c3ccccc23)CC1 [II-54, 1-(4-(4-(3-benzopyrazolyl)piperazin-1-yl)butyl)-1H-benzimidazole]	3.93	pEC50 [2]: 4.23
FC(F)(F)c1cccc(C2CCN(CCCOn3cnc4ccccc43)CC2)c1 [II-11]	5.17	–
Fc1ccc2c(C3CCN(CCCn4nnc5ccc(F)cc54)CC3)noc2c1 [II-14, N-(3-(6-fluoro-1H-benzotriazole-1-yl)propyl)-4-(3-(6-fluorobenzoisoxazole))piperidine]	5.72	–
COC(=O)c1ccc2nnn(CCCCN3CCN(c4cccc(C(F)(F)F)c4)CC3)c2c1 [II-85, 6-methoxycarbonyl-1-(4-(4-(3-trifluoromethylphenyl)piperazin-1-yl)butyl)-1H-benzotriazole]	4.11	–
Fc1ccc2nnn(CCCCN3CCC(c4cccc(C(F)(F)F)c4)CC3)c2c1 [II-7, N-(4-(6-fluoro-1H-benzotriazole-1-yl)butyl)-4-(3-trifluoromethylphenyl)piperidine]	5.03	–
Fc1cccc(C2CCN(CCCCn3cnc4ccccc43)CC2)c1 [II-5, N-(4-(1H-benzimidazol-1-yl)butyl)-4-(3-fluorophenyl)piperidine]	4.44	–
Cc1ccc2nnn(CCCN3CCC(c4noc5cc(F)ccc45)CC3)c2c1 [II-16, N-(3-(6-methyl-1H-benzotriazole-1-yl)propyl)-4-(3-(6-fluorobenzoisoxazole))piperidine]	5.28	–
c1ccc2c(c1)nnn2CCCCN1CCC(C2CCCCC2)CC1 [II-32, N-(4-(1H-benzotriazole-1-yl)butyl)-4-cyclohexyl piperidine]	4.14	–
Clc1cccc(N2CCN(CCCCn3nnc4ccccc43)CC2)c1 [Compound II-63, 1-(4-(4-(3-chlorophenyl)piperazin-1-yl)butyl)-1H-benzotriazole]	5.64	relaxant effect against hyperkalemia solution contraction (in words) [1]: significant relaxant effect; pEC50 [2]: 6.01; relaxant effect against AD contraction (in words) [2]: most significant relaxation effects
Cc1cccc(N2CCN(CCCn3nnc4ccccc43)CC2)c1 [II-73, 1-(3-(4-(3-methylphenyl)piperazin-1-yl)propyl)-1H-benzotriazole]	5.22	pEC50 [2]: 5.47
Clc1cccc(N2CCN(CCCn3nnc4ccccc43)CC2)c1Cl [II-72, 1-(3-(4-(2,3-dichlorophenyl)piperazin-1-yl)propyl)-1H-benzotriazole]	5.33	pEC50 [2]: 5.72
Fc1ccc2c(N3CCN(CCCOn4nnc5ccccc54)CC3)noc2c1 [II-86]	4.58	pEC50 [2]: 4.88
COc1ccc2c(C3CCN(CCCn4nnc5ccccc54)CC3)noc2c1 [II-13, N-(3-(1H-benzotriazole-1-yl)propyl)-4-(3-(6-methoxy-benzene and isoxazole))piperidine]	5.12	–
COc1ccc2c(C3CCN(CCCCn4nnc5ccc(C#N)cc54)CC3)noc2c1 [II-23, N-(4-(6-cyano-benzotriazole-yl)butyl)-4-(3-(6-methoxy-benzene and isoxazole)) piperidine]	4.23	–
FC(F)(F)c1cccc(C2CCN(CCCCn3cnc4ccccc43)CC2)c1 [Compound II-3, N-(4-(1H-benzimidazol-1-yl)butyl)-4-(3-trifluoromethylphenyl)piperidine]	6.01	–
c1ccc2nc(C3CCN(CCCCn4nnc5ccccc54)CC3)cnc2c1 [II-34, N-(4-(1H-benzotriazole-1-yl)butyl)-4-(2-quinoxalinyl)piperidine]	4.13	–

Structure (SMILES)	pEC50 [1]	other results
COc1ccc2nnn(CCCN3CCC(c4noc5ccccc45)CC3)c2c1 [II-19, N-(3-(6-methoxybenzotriazolyl)propyl)-4-(3-benzoisoxazole)piperidine]	5.11	–
N#Cc1ccc2nnn(CCCCN3CCN(c4cccc(C(F)(F)F)c4)CC3)c2c1 [II-84, 6-cyano-1-(4-(4-(3-trifluoromethylphenyl)piperazin-1-yl)butyl)-1H-benzotriazole]	4.31	–
FC(F)(F)c1cccc(C2CCN(CCCCn3nnc4ccccc43)CC2)c1 [II-4, N-(4-(1H-benzotriazole-1-yl)butyl)-4-(3-trifluoromethylphenyl)piperidine]	6.12	–
c1ccc2c(C3CCN(CCCCn4nnc5ccccc54)CC3)cccc2c1 [II-33, N-(4-(1H-benzotriazole-1-yl)butyl)-4-(1-naphthyl)piperidine]	4.04	–
c1ccc2c(c1)ncn2CCCCN1CCC(c2ccncc2)CC1 [II-30, N-(4-(1H-benzimidazol-1-yl)butyl)-4-(4-pyridyl)piperidine]	4.26	–
COc1ccccc1C1CCN(CCCCn2cnc3ccccc32)CC1 [Compound II-6, N-(4-(1H-benzimidazol-1-yl)butyl)-4-(2-methoxyphenyl)piperidine]	4.38	–
FC(F)(F)c1cccc(C2CCN(CCCOn3nnc4ccccc43)CC2)c1 [II-10, N-(4-(1H-benzotriazole-1-yl)propoxy)-4-(3-trifluoromethylphenyl)piperidine]	5.22	–
Fc1ccc2c(C3CCN(CCCn4nnc5ccc(Cl)cc54)CC3)noc2c1 [II-15, N-(3-(6-chloro-1H-benzotriazole-1-yl)propyl)-4-(3-(6-fluorobenzoisoxazole))piperidine]	5.12	–
N#Cc1ccc2nnn(CCCCN3CCC(c4cccc(C(F)(F)F)c4)CC3)c2c1 [II-9, N-(4-(6-cyano-1H-benzotriazole-1-yl)butyl)-4-(3-trifluoromethylphenyl)piperidine]	4.23	–
Clc1cccc(C2CCN(CCCCn3cnc4ccccc43)CC2)c1 [Compound II-1, N-(4-(1H-benzimidazol-1-yl)butyl)-4-(3-chlorophenyl)piperidine]	4.69	–
Clc1cccc(N2CCN(CCCCn3cnc4ccccc43)CC2)c1Cl [Compound II-37, 1-(4-(4-(2,3-dichlorophenyl)piperazin-1-yl)butyl)-1H-benzimidazole]	5.49	relaxant effect against hyperkalemia solution contraction (in words) [1]: significant relaxant effect; pEC50 [2]: 6.01; relaxant effect against AD contraction (in words) [2]: most significant relaxation effects
c1cnc(C2CCN(CCCCn3cnc4ccccc43)CC2)nc1 [II-31, N-(4-(1H-benzimidazol-1-yl)butyl)-4-(2-pyrimidinyl)piperidine]	4.32	–
c1coc(C2CCN(CCCCn3cnc4ccccc43)CC2)c1 [II-29, N-(4-(1H-benzimidazol-1-yl)butyl)-4-(2-furyl)piperidine]	4.53	–
Cc1ccc2c(C3CCN(CCCn4nnc5ccccc54)CC3)noc2c1 [II-12, N-(3-(1H-benzotriazole-1-yl)propyl)-4-(3-(6-methyl-benzisoxazole))piperidine]	5.09	–
COc1ccc2nnn(CCCCN3CCC(c4cccc(C(F)(F)F)c4)CC3)c2c1 [II-8, N-(4-(6-methoxy-1H-benzotriazole-1-yl)butyl)-4-(3-trifluoromethylphenyl)piperidine]	4.56	–
O=Cc1ccc2nnn(CCCN3CCC(c4noc5cc(F)ccc45)CC3)c2c1 [II-18, N-(3-(6-formyl-1H-benzotriazole-1-yl)propyl)-4-(3-(6-fluorobenzoisoxazole))piperidine]	5.32	–
